{"source": "patent EP1125931A1", "about": "“Biocidal alkyl-substituted-(hetero)aryl-ketoxime-O-ethers and the production method thereof” (Hunan Research Institute of Chemical Industry, priority 2000, dated 2001)", "key": {"[1]": {"system": "Green peach aphid", "experiment": "Biological activity (LC50) against green peach aphid", "assay_type": "in vivo"}, "[2]": {"system": "American tobacco cutworm", "experiment": "Biological activity (LC50) against American tobacco cutworm", "assay_type": "in vivo"}, "[3]": {"system": "Spotted cutworm", "experiment": "Biological activity (LC50) against spotted cutworm", "assay_type": "in vivo"}, "[4]": {"system": "Spinach army worm", "experiment": "Biological activity (LC50) against spinach army worm", "assay_type": "in vivo"}, "[5]": {"system": "fungal pathogens", "experiment": "Test for antifungal activity (mycelial growth on PDA media)", "assay_type": "cell-based", "details": "against one or more fungal pathogens; concentration 100 ppm; 72 hours of cultivation; read-out: growth inhibition rate", "description": "Alkyl-substituted-(hetero)aryl-ketoxime-o-ether, ketone intermediate, or active oxime compound of this invention was diluted with an appropriate diluting agent (such as propanone) to prepare a parent solution having a certain concentration. One ml of this solution was taken with a pipette into 50 ml of molten PDA media. After shaking thoroughly, it was poured into two Petri dishes, to create duplicate. After cooling, a mycelial pad (diameter = about 4 mm) was taken and inoculated on the center of the culture dish. The diluting agent was used as the control. After inoculation, the dish was kept in an incubator set at an appropriate temperature. After 72 hours of cultivation, length (diameter of the colony) of the growth of mycelia was measured, and fungal growth inhibition rate was calculated."}, "[6]": {"system": "Mythimne separata", "experiment": "Test for the biological activity against Mythimne separata (spray, Petri dish with corn fragments)", "assay_type": "in vivo", "details": "after 24 hours", "description": "Emulsion oil or wettable powder of the alkyl-substituted-(hetero)aryl-ketoxime-o-ether, intermediate ketone, or the active oxime compound of this invention prepared by the procedure described in the Examples for preparing a controlling agent in agriculture described above was diluted with water to prepare a solution of agricultural chemical having a certain concentration.\nTen heads of Mythimne separata and 5 pieces of corn fragments were placed in a Petri dish, and it was sprayed with a certain amount of agricultural chemical solution. After the exposure, it was kept in a room for normal cultivation. After 24 hours, number of live and dead insects were counted. Test was run 3 times, and results were averaged. […] Some compounds (I) [such as Code No. 5, 8, and 30] shown in Table 1] gave 100% lethal rate even when the concentration was lower than 500 ppm."}, "[7]": {"system": "leafhopper Nephotetlix cimeticeps", "experiment": "Test for the biological activity against leafhopper (rice seedling dip)", "assay_type": "in vivo", "details": "after 24 hours; for kill rate: at a lower concentration (than 250 ppm); for leafhoppers killed: concentration 250 ppm (content of effective component), average of 3 tests", "description": "Emulsion oil or wettable powder of the alkyl-substituted-(hetero)aryl-ketoxime-o-ether, ketone intermediate, or active oxime compound of this invention prepared by the method described in the Example for preparing a controlling agent in agriculture was diluted with water to prepare a solution of agricultural chemical having a certain concentration. Rice seedlings (second semester) were dipped in the solution of agricultural agent for 5 seconds, and then removed. It was drained and then placed in a large test tube. Each test tube contained 20 seedlings. Then, 20 leafhoppers (5th instar) were introduced in the tube, and the mouth of the tube was covered with a white cheesecloth. The tube was kept at room temperature, and number of live and dead leafhoppers was examined after 24 hours. Test was run 3 times, and results were averaged."}, "[8]": {"system": "aphids Aphis fabae", "experiment": "Test for the biological activity against aphids (seedling dip)", "assay_type": "in vivo", "details": "after 24 hours; for lethal rate: at a lower concentration (than 250 ppm); for aphids killed: concentration 250 ppm (content of effective component), average of 3 tests", "description": "Emulsion oil or wettable powder of the alkyl-substituted-(heteroaryl-ketoxime-o-ether, ketone intermediate or active oxime compound of this invention prepared by the method described in the Example for preparing a controlling agent in agriculture was diluted with water to prepare a solution of agricultural chemical having a certain concentration. Aphids were inoculated in the new seedlings (more than 15). Then, the seedlings, together with the aphids, were dipped in the solution of agricultural agent for 5 seconds, removed, and excess liquid was drained. They were placed in a water-absorbing sponge, and held by glass rods. After 24 hours, the number of live and dead aphids was examined. Test was run 3 times, and the results were averaged. With a series of compound (I) [Code No. 5, 8, 21, 22, 23, 30, 33, 46, 47, 48], the aphids were killed 100% when the concentration was 250 ppm (calculated as the content of effective component). Some compounds (I) [Code No. 5, 8, and 30 in Table 1] gave 100% lethal rate with the aphids, even at a lower concentration."}, "[9]": {"details": "concentration 500 ppm (content of effective component), average of 3 tests"}, "[10]": {"details": "concentration lower than 500 ppm"}}, "note": "Like-named read-outs stand apart in the source and are kept apart here."}
{"smiles": "CSC(C)C(=NOCc1cccc(Oc2ccccc2)c1)c1ccc(Cl)cc1", "note": "(stereo not shown) [Code No. 30 E-form, 1-(4-chlorophenyl)-2-methylthio-O-((3-phenoxyphenyl)methyl) 1-propanone oxime]", "values": [{"measurement": "LC50", "setting": "[1]; listed as 30 E-form", "value": "LC50 (ppm) < 15"}, {"measurement": "LC50", "setting": "[2]; listed as 30 E-form", "value": "LC50 (ppm) < 5"}, {"measurement": "LC50", "setting": "[3]; listed as 30 E-form", "value": "LC50 (ppm) < 1.5"}, {"measurement": "LC50", "setting": "[4]; listed as 30 E-form", "value": "LC50 (ppm) < 5"}]}
{"smiles": "CSCC(=NO)c1ccc(Cl)cc1", "note": "[compound (III) Code No. 5, 1-(4-chlorophenyl)-2-methylthio ethanone oxime]", "values": [{"measurement": "inhibition at 100 ppm", "setting": "[5]", "value": "> 90", "unit": "%"}]}
{"smiles": "CSCC(=NOCc1cccc(Oc2ccccc2)c1)c1ccc(Cl)cc1", "note": "[Code No. 5]", "values": [{"measurement": "lethal rate", "setting": "[6]; [9]", "value": "exceeding 100%"}, {"measurement": "lethal rate", "setting": "[6]; [10]", "value": 100, "unit": "%"}, {"measurement": "kill rate", "setting": "[7]", "value": 100, "unit": "%"}, {"measurement": "leafhoppers killed", "setting": "[7]", "value": 100, "unit": "%"}, {"measurement": "lethal rate", "setting": "[8]", "value": 100, "unit": "%"}, {"measurement": "aphids killed", "setting": "[8]", "value": 100, "unit": "%"}]}
{"smiles": "CSC(C)C(=NOCc1cccc(Oc2ccccc2)c1)c1ccc(Cl)cc1", "note": "(stereo not shown) [Code No. 30 Z-form, 1-(4-chlorophenyl)-2-methylthio-O-((3-phenoxyphenyl)methyl) 1-propanone oxime]", "values": [{"measurement": "LC50", "setting": "[1]; listed as 30 Z-form", "value": "LC50 (ppm) > 150"}, {"measurement": "LC50", "setting": "[2]; listed as 30 Z-form", "value": "LC50 (ppm) > 150"}, {"measurement": "LC50", "setting": "[3]; listed as 30 Z-form", "value": "LC50 (ppm) > 150"}, {"measurement": "LC50", "setting": "[4]; listed as 30 Z-form", "value": "LC50 (ppm) > 150"}]}
{"smiles": "CSCC(=NOCc1cccc(Oc2ccccc2)c1)c1ccc(Cl)cc1", "note": "[Code No. 5 E-form]", "values": [{"measurement": "LC50", "setting": "[1]", "value": "LC50 (ppm) > 100"}, {"measurement": "LC50", "setting": "[2]", "value": "LC50 (ppm) < 10"}, {"measurement": "LC50", "setting": "[3]", "value": "LC50 (ppm) < 5"}, {"measurement": "LC50", "setting": "[4]", "value": "LC50 (ppm) < 5"}]}
{"smiles": "CSC(C)C(=NOCc1cccc(Oc2ccccc2)c1)c1ccc(Cl)cc1", "note": "(stereo not shown) [Code No. 30, 1-(4-chlorophenyl)-2-methylthio-O-((3-phenoxyphenyl)methyl) 1-propanone oxime]", "values": [{"measurement": "lethal rate", "setting": "[6]; [9]", "value": "exceeding 100%"}, {"measurement": "lethal rate", "setting": "[6]; [10]", "value": 100, "unit": "%"}, {"measurement": "kill rate", "setting": "[7]", "value": 100, "unit": "%"}, {"measurement": "leafhoppers killed", "setting": "[7]", "value": 100, "unit": "%"}, {"measurement": "lethal rate", "setting": "[8]", "value": 100, "unit": "%"}, {"measurement": "aphids killed", "setting": "[8]", "value": 100, "unit": "%"}]}
